Data from publication PMC12136037, “Type II kinase inhibitors that target Parkinson’s disease–associated LRRK2” (Science Advances, 2025).
Where “and” joins values, the source holds several entries; their conditions need not be identical. Equal values may be shown once.

System: LRRK2 S935 phosphorylation
Assay: Western blot of LRRK2 biomarker site pS935 in transfected 293T cells
Assay type: cell-based, human
Method: For all in cell kinase assays, after 48 hours, transfected cells were treated with either DMSO (control) or the indicated inhibitors for 4 hours at 37°C and 5% CO2. Following treatments, cells were washed three times with ice cold PBS. Cells were then lysed in ice cold radioimmunoprecipitation assay (RIPA) lysis buffer [50 mM tris (pH 8.0), 150 mM NaCl, 1% Triton X-100, 0.1% SDS, 0.5% sodium deoxycholate, and 1 mM DTT] in the presence of complete mini EASYpack protease inhibitor cocktail and the PhosSTOP EASYpack phosphatase inhibitor cocktail (Roche). Resuspended and lysed cells were clarified by centrifugation at 13,000g for 15 min at 4°C. NuPAGE LDS Sample Buffer (1×) and NuPAGE Sample Reducing Agent (1×; Invitrogen) were added to the clarified supernatants, and the samples were boiled at 95°C for 5 min and spun down at 13,000g for 10 min. For Western blotting, 15 μl of sample was loaded into a NuPAGE 4 to 12% gradient bis-tris gel (Invitrogen) and run at 120 V for 75 min before transfer to polyvinylidene difluoride transfer membrane (0.45-μm pore size, Millipore) for 240 min at 80 V at 4°C. The membrane was blocked in 5% milk in 1× Tris-buffered saline (TBS) [20 mM tris (pH 8.0) and 150 mM NaCl] for 1 hour shaking at room temperature. Primary antibodies [monoclonal rabbit anti-LRRK2 (Abcam, ab133474; RRID: AB_2713963), polyclonal rabbit anti-LRRK1 (Abcam, ab228666), monoclonal rabbit anti-LRRK2 phospho-S935 (Abcam, ab133450; RRID: AB_2732035), monoclonal rabbit anti-Rab8a phospho-T72 (Abcam, ab230260; RRID: AB_2814988), monoclonal rabbit anti-Rab7 phospho-S72 (Abcam, ab302494; RRID: AB_2933985), monoclonal rabbit anti–glyceraldehyde-3-phosphate dehydrogenase (GAPDH; Cell Signalling Technology, 2118; RRID: AB_561053), and monoclonal mouse anti-GFP (Santa Cruz Biotechnology, sc-9996; RRID: AB_627695)] were diluted in 5% milk in TBS and incubated with membrane for 16 hours at 4°C. Following incubation, membranes were washed three times with 1× TBS-T [20 mM tris (pH 8.0), 150 mM NaCl, and 0.1% Tween 20] before incubation with IRDye 680RD goat anti-rabbit IgG (LI-COR, 926-68071; RRID: AB_10956166) and IRDye 800CW goat anti-mouse IgG (LI-COR, 926-32210; RRID: AB_621842) secondary antibodies in 5% milk in 1× TBS for 1 hour at room temperature. Membranes were then washed three times in 1× TBS-T before imaging on Li-COR Odyssey CLx controlled by Imaging Studio software (www.licorbio.com/image-studio, RRID:SCR_015795). Image processing and quantification were performed in ImageJ version 2.14.0 (National Institutes of Health; https://imagej.net/, RRID:SCR_003070). The signal intensity of each band was assessed using the Analyze>Gels tool. The band intensity for phosphorylated LRRK2 was measured and compared to total LRRK2 levels (run under identical conditions on a separate gel). Band intensity for phosphorylated Rab7 or Rab8a was measured and compared against total GFP-Rab7 or GFP-Rab8a (using anti-GFP antibody) and LRRK1/LRRK2 levels as appropriate. Comparative statistical analysis of phosphorylation levels was analyzed using a one-way analysis of variance (ANOVA) and corrected using Tukey’s multiple comparisons test in GraphPad Prism 10 (www.graphpad.com/, RRID:SCR_002798). (For current step-by-step protocol for LRRK transfection and Western blotting, see dx.doi.org/10.17504/protocols.io.kxygx9bozg8j/v1.)

SMILES: C[C@@H]1CN(c2cc(-c3n[nH]c4ccc(OC5(C)CC5)cc34)ncn2)C[C@H](C)O1 [MLi-2, reference compound]
- pS935 LRRK2/LRRK2 normalized to DMSO, Mean (500 nM, 4 h, 3 replicates): 0.05291
- pS935 LRRK2/LRRK2 normalized to DMSO (500 nM, 4 h, individual Western blots): 0.09836 and 0.02387 and 0.03651
- effect on phosphorylation of LRRK2 S935 (293T cells, MLi-2 500 nM): almost complete dephosphorylation
